The results in this text go back to patent US11542257B2, “Arylnaphthalene compounds as vacuolar-ATPase inhibitors and the use thereof” (priority 2018, dated 2023).

A word on the IC50: it is the concentration at which inhibition is half-maximal.

One data set deals with Ebolavirus (EBOV). As to the kind of experiment: organism not typed. The settings on record: for IC50: read-out: EBOV IC50. It is filed as cell-based.
Data set [1] has as its system endosomal acidification in HEK293 cells. As to the kind of experiment: cells. It counts as cell-based. The settings on record: for IC50: read-out: HEK AO IC50.
Data set [2] concerns cytosolic pH of HEK293 cells. The data set is described as follows: Cytosolic pH, BCECF-AM, HEK293 cells. It counts as cell-based. As to conditions: FIG. 1B.
In data set [3] the test system is endosomal acidification in A549 cells. The data set is described as follows: Inhibition of cellular endosomal acidification, acridine orange (AO), A549 cells. It counts as cell-based.
The next data set deals with A549 cells. As to the kind of experiment: Cytotoxicity (MTT), A549 cells. The settings on record: read-out: A549 CC50, 72 h, MTT.
Data set [4] addresses T1, V-ATPase (Homo sapiens, UniProt P27449+Q93050). It counts as biochemical.
The test system of the next data set is Marburg virus (MARV). It counts as cell-based.
For data set [5], the system named is endosomal pH of HEK293 cells. As to the kind of experiment: Intracellular endosomal pH, FITC-dextran, HEK293 cells. It counts as cell-based. As to conditions: HEK293, 4 h, 1-3 μM, FIG. 1C.
In data set [6] the target is T1, V-ATPase. As to the kind of experiment: Acridine orange quenching in isolated HEK293 vesicles (proton-pumping function of V-ATPase). It counts as biochemical.
The nature of data set [7]: Cytotoxicity (MTT), A549 cells. As to conditions: human.
The nature of another data set: in vitro. As to conditions: human.
Data set [8] has as its system filoviral infection of primary human macrophages (PHM). It is filed as cell-based, filovirus. The settings on record: read-out: PHM Antiviral IC50.

Where two headings read alike, the source gives them in different places. Bounds are passed on as bounds.

T1 sequence (P27449 whole entry, looked up): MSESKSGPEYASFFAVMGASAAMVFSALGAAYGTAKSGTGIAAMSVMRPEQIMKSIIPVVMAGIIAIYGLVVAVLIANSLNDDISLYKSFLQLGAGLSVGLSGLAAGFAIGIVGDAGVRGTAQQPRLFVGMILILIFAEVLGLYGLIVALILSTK
T1 sequence (Q93050 whole entry, looked up): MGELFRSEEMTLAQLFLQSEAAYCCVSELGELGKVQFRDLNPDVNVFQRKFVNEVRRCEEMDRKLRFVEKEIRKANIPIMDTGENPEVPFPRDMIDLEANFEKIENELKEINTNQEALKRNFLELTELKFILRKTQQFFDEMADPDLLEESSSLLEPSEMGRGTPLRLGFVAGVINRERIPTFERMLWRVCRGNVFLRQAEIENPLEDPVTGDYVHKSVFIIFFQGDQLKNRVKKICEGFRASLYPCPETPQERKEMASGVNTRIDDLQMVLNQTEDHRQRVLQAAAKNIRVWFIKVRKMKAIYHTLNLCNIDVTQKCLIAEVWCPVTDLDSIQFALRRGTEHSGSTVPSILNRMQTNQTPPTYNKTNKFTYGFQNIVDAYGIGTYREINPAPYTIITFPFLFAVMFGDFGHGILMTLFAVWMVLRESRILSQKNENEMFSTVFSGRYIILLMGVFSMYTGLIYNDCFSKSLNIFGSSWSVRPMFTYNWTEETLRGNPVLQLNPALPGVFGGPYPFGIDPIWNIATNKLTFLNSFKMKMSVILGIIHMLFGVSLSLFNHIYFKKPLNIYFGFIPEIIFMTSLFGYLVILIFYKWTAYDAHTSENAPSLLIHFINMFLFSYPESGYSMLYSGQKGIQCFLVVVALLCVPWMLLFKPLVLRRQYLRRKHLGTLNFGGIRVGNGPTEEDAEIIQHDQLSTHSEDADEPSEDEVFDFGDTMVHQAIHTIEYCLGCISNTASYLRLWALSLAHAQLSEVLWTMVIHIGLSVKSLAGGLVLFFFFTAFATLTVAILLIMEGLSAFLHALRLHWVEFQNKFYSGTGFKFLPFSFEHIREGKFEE

`CO/C1=C\C(C)=C\[C@@H](C)[C@@H](O)[C@@H](C)C/C(C)=C/C=C/[C@H](OC)[C@@H]([C@@H](C)[C@@H](O)[C@H](C)[C@@]2(O)C[C@@H](O)[C@H](C)[C@@H](C(C)C)O2)OC1=O` [Baf A1, bafilomycin A1, reference compound]: the figures for the CC50 with HEK293 cells and in the data set on A549 cells were 320 ± 42 nM and 479 ± 266 nM, respectively. In addition, the IC50 amounted to 14.9 ± 8.93 nM in the data set on Ebolavirus (EBOV), 40.5 ± 3.31 nM in [1] and 21.3 ± 2.55 nM in [3]. In addition, the “change in cytosolic pH compared to the vehicle treated control” value in data set [2] is given as “no significant change”.
For the compound `COc1cc2c(OC(C)=O)c3c(c(-c4ccc5c(c4)OCO5)c2cc1OC)C(=O)N(CCO)C3=O` [Compound 1e, 9-(benzo[d][1,3]dioxol-5-yl)-2-(2-hydroxyethyl)-6,7-dimethoxy-1,3-dioxo-2,3-dihydro-1H-benzo[f]isoindol-4-yl acetate], in the data set on Ebolavirus (EBOV), the “active in screen for inhibition of ebolavirus infection” value was “active”. Further, the 50% inhibitory concentration (IC50) with Ebolavirus (EBOV) (HeLa) is 5400 ± 2920 nM; in [1] (Homo sapiens, HEK293, 4 h) it was above 10000 nM. Further, the “effect on endosomal acidification (AO fluorescence ratio), in words” value in data set [1] was “did not cause a significant change in the fluorescence ratio”.
Regarding `COc1cc2c(O)c3c(c(-c4ccc5c(c4)OCO5)c2cc1OC)C(=O)OC3` [Compound 2a, 9-(benzo[d][1,3]dioxol-5-yl)-4-hydroxy-6,7-dimethoxynaphtho[2,3-c]furan-1(3H)-one, reference compound], the “inhibition of ATP hydrolysis, in words” value against V-ATPase [4] is given as “inhibited ATP hydrolysis to a similar extent”. For the same compound, the IC50 was found to be 1770 ± 80 nM with Marburg virus (MARV), 678 ± 161 nM with Ebolavirus (EBOV), 476 ± 60.1 nM in data set [1] and 149 ± 20.5 nM in data set [3]. In addition, the “endosomal pH after treatment” value in data set [5] is around 7 pH. Further, the “times less potent than bafilomycin A1 (V-ATPase-mediated fluorescent quenching)” value at V-ATPase [6] is “about 7.5 times”. The “change in cytosolic pH compared to the vehicle treated control” value in data set [2] is reported as “no significant change”. In data set [7], this compound came in with a CC50 at 72 h of 50100 ± 15500 nM.
`COc1cc2c(OC)c3c(c(-c4ccc5c(c4)OCO5)c2cc1OC)C(=O)OC3` [Compound 2b, 9-(benzo[d][1,3]dioxol-5-yl)-4,6,7-trimethoxynaphtho[2,3-c]furan-1(3H)-one]: on V-ATPase [4], the “inhibition of ATP hydrolysis, in words” value was “inhibited ATP hydrolysis to a similar extent”. In addition, in “in vitro”, the CC50 is 5730 ± 841 nM. Further, the figures for the half-inhibitory concentration (IC50) (in the data set with Ebolavirus (EBOV); in data set [1]; in data set [3]) were 171 ± 40.2 nM, 265 ± 58.6 nM and 58.2 ± 8.76 nM, respectively. The same compound came in with a CC50 at 72 h in data set [7] above 100000 nM.
For `CCOc1c2c(c(-c3ccc4c(c3)OCO4)c3cc(OC)c(OC)cc13)C(=O)OC2` [Compound 2c, 9-(benzo[d][1,3]dioxol-5-yl)-4-ethoxy-6,7-dimethoxynaphtho[2,3-c]furan-1(3H)-one], on V-ATPase [4], the “inhibition of ATP hydrolysis, in words” value was “inhibited ATP hydrolysis to a similar extent”. This compound displayed a CC50 in the data set “in vitro” of 2380 nM. Also, the IC50 in the data set with Ebolavirus (EBOV) was 112 ± 14.7 nM; in data set [1], 254 ± 49 nM; in [3], 52.4 ± 19.3 nM. Besides, the CC50 at 72 h in data set [7] is 77400 ± 11000 nM.
On to `C#CCOc1c2c(c(-c3ccc4c(c3)OCO4)c3cc(OC)c(OC)cc13)C(=O)OC2` [Compound 2d, 9-(benzo[d][1,3]dioxol-5-yl)-6,7-dimethoxy-4-(prop-2-yn-1-yloxy)naphtho[2,3-c]furan-1(3H)-one], for which the CC50 in the data set “in vitro” was 2040 nM. The half-maximal inhibitory concentration (IC50) in the data set with Ebolavirus (EBOV) (HeLa) is 175 ± 21.7 nM; in [1] (Homo sapiens, HEK293, 4 h), 263 ± 46.6 nM.
In the case of `C#CCCCOc1c2c(c(-c3ccc4c(c3)OCO4)c3cc(OC)c(OC)cc13)C(=O)OC2` [Compound 2e, 9-(benzo[d][1,3]dioxol-5-yl)-6,7-dimethoxy-4-(pent-4-yn-1-yloxy)naphtho[2,3-c]furan-1(3H)-one], on V-ATPase [4], the “inhibition of ATP hydrolysis, in words” value is on record as “inhibited ATP hydrolysis to a similar extent”. In addition, the IC50 in the data set on Marburg virus (MARV) was found to be 402 ± 45.9 nM; in data set [8], 240 nM; in the data set on Ebolavirus (EBOV), 73.2 ± 11.9 nM; in data set [1], 102 ± 19 nM; in data set [3], 84.8 ± 11.9 nM. Further, on V-ATPase [6], the “times better activity than Bafilomycin A1 (proton pumping activity of V-ATPase)” value is on record as 2 times. For the same compound, the “times better activity than diphyllin (proton pumping activity of V-ATPase)” value on V-ATPase [6] turned out to be 17 times. This compound also showed a CC50 at 72 h in data set [7] above 100000 nM.
As to `COc1cc2c(OCCCC#N)c3c(c(-c4ccc5c(c4)OCO5)c2cc1OC)C(=O)OC3` [Compound 2f, 4-((9-(benzo[d][1,3]dioxol-5-yl)-6,7-dimethoxy-1-oxo-1,3-dihydronaphtho[2,3-c]furan-4-yl)oxy)butanenitrile], the CC50 in “in vitro” is 3310 ± 740 nM. Further, the IC50 with Ebolavirus (EBOV) (HeLa) came to 93.1 ± 26.8 nM; in data set [1] (Homo sapiens, HEK293, 4 h), 98.7 ± 29.5 nM.
Turning to `COc1cc2c(OCCCN3CCOCC3)c3c(c(-c4ccc5c(c4)OCO5)c2cc1OC)C(=O)OC3` [Compound 2g, 9-(benzo[d][1,3]dioxol-5-yl)-6,7-dimethoxy-4-(3-morpholinopropoxy)naphtho[2,3-c]furan-1(3H)-one], on V-ATPase [4], the “inhibition of ATP hydrolysis, in words” value is “inhibited ATP hydrolysis to a similar extent”. Moreover, the 50% inhibitory concentration (IC50) with Marburg virus (MARV) was 135 ± 11.4 nM; in data set [8] it was 57.7 ± 8.6 nM; in the data set on Ebolavirus (EBOV), 107 ± 23.7 nM; in data set [1], 74.3 ± 23.9 nM; in [3], 56.1 ± 15.9 nM. For the same compound, the “times better activity than diphyllin (proton pumping activity of V-ATPase)” value at V-ATPase [6] was determined as 7 times. In [7], this compound came in with a CC50 at 72 h above 100000 nM.
For `CCOC(=O)CN1CCN(CCCOc2c3c(c(-c4ccc5c(c4)OCO5)c4cc(OC)c(OC)cc24)C(=O)OC3)CC1` [Compound 2h, ethyl 2-(4-(3-((9-(benzo[d][1,3]dioxol-5-yl)-6,7-dimethoxy-1-oxo-1,3-dihydronaphtho[2,3-c]furan-4-yl)oxy)propyl)piperazin-1-yl)acetate], the “inhibition of ATP hydrolysis, in words” value against V-ATPase [4] is recorded as “inhibited ATP hydrolysis to a similar extent”. In addition, the concentration for half-maximal inhibition (IC50) came to 81.6 ± 28.7 nM in the data set on Marburg virus (MARV); 256 nM in [8]; 132 ± 32.3 nM with Ebolavirus (EBOV); 172 ± 40.6 nM in data set [1]; 101 ± 13.8 nM in data set [3]. Moreover, the CC50 at 72 h in [7] was above 100000 nM.
As to `COc1cc2c(OCCCN3CCN(CCO)CC3)c3c(c(-c4ccc5c(c4)OCO5)c2cc1OC)C(=O)OC3` [Compound 2i, 9-(benzo[d][1,3]dioxol-5-yl)-4-(3-(4-(2-hydroxyethyl)piperazin-1-yl)propoxy)-6,7-dimethoxynaphtho[2,3-c]furan-1(3H)-one], the figures for the IC50 (in the data set on Ebolavirus (EBOV); in data set [1]) were 76.2 ± 14.6 nM and 104 ± 21.2 nM, respectively.
In turn, `COc1cc2c(O)c3c(c(-c4ccc5c(c4)OCO5)c2cc1OC)C(=O)N(N)C3` [Compound 3a, 2-amino-9-(benzo[d][1,3]dioxol-5-yl)-4-hydroxy-6,7-dimethoxy-2,3-dihydro-1H-benzo[f]isoindol-1-one] gave a CC50 in the data set “in vitro” of 48900 ± 3610 nM. Besides, the concentration for half-maximal inhibition (IC50) with Ebolavirus (EBOV) (HeLa) turned out to be 3940 ± 604 nM; in data set [1] (Homo sapiens, HEK293, 4 h), 9060 ± 893 nM; in data set [3] (Homo sapiens), 8110 ± 670 nM. For the same compound, the “effect on endosomal acidification (AO fluorescence ratio), in words” value in [1] is “moderately inhibited acidification”. The CC50 at 72 h in data set [7] came to 28700 ± 16600 nM.
For `COc1cc2c(O)c3c(c(-c4ccc5c(c4)OCO5)c2cc1OC)C(=O)N(/N=C/c1ccccc1)C3` [Compound 3b, (E)-9-(benzo[d][1,3]dioxol-5-yl)-2-(benzylideneamino)-4-hydroxy-6,7-dimethoxy-2,3-dihydro-1H-benzo[f]isoindol-1-one], the IC50 in the data set on Ebolavirus (EBOV) (HeLa) was 6630 ± 437 nM; in [1] (Homo sapiens, HEK293, 4 h) it was above 10000 nM.
With `COc1cc2c(O)c3c(c(-c4ccc5c(c4)OCO5)c2cc1OC)C(=O)N(/N=C/c1cccnc1)C3` [Compound 3c, (E)-9-(benzo[d][1,3]dioxol-5-yl)-4-hydroxy-6,7-dimethoxy-2-((pyridin-3-ylmethylene)amino)-2,3-dihydro-1H-benzo[f]isoindol-1-one], the CC50 in the data set “in vitro” amounted to 49900 ± 15900 nM. Further, the “times less effective than diphyllin (AO quenching)” value on V-ATPase [6] came out at 2 times. Besides, the IC50 in the data set on Ebolavirus (EBOV) was 4480 ± 467 nM; in data set [1], 8710 ± 769 nM; in data set [3] it was 11600 nM. In data set [7], this compound showed a CC50 at 72 h of 50100 ± 27700 nM.
Compound `COc1cc2c(O)c3c(c(-c4ccc5c(c4)OCO5)c2cc1OC)C(=O)N(/N=C/c1ccc(Cl)cc1)C3` [Compound 3d, (E)-9-(benzo[d][1,3]dioxol-5-yl)-2-((4-chlorobenzylidene)amino)-4-hydroxy-6,7-dimethoxy-2,3-dihydro-1H-benzo[f]isoindol-1-one] gave a CC50 in the data set “in vitro” of 28400 ± 2710 nM. For the same compound, the “times less effective than diphyllin (AO quenching)” value on V-ATPase [6] amounted to 4 times. For the same compound, the IC50 is 1170 ± 518 nM in the data set with Ebolavirus (EBOV), 9930 ± 140 nM in data set [1] and 8440 ± 367 nM in data set [3]. Further, the CC50 at 72 h in data set [7] was found to be 78000 ± 26400 nM.
For the compound `COc1cc2c(O)c3c(c(-c4ccc5c(c4)OCO5)c2cc1OC)C(=O)N(/N=C/c1ccc(C#N)cc1)C3` [Compound 3g, (E)-4-(((9-(benzo[d][1,3]dioxol-5-yl)-4-hydroxy-6,7-dimethoxy-1-oxo-1,3-dihydro-2H-benzo[f]isoindol-2-yl)imino)methyl)benzonitrile], the concentration for half-maximal inhibition (IC50) was 1690 ± 233 nM in the data set with Ebolavirus (EBOV) (HeLa) and above 10000 nM in data set [1] (Homo sapiens, HEK293, 4 h).
The matching figures for `COc1cc2c(O)c3c(c(-c4ccc5c(c4)OCO5)c2cc1OC)C(=O)N(/N=C/c1c(F)c(F)c(F)c(F)c1F)C3` [Compound 3h, (E)-9-(benzo[d][1,3]dioxol-5-yl)-4-hydroxy-6,7-dimethoxy-2-(((perfluorophenyl)methylene)amino)-2,3-dihydro-1H-benzo[f]isoindol-1-one]: 8740 ± 2180 nM and above 10000 nM.
